Tests used:
LD 50 P.O., mice = conditions: mouse, in vivo, po
mice [1] = test: Fighting test, mice; type: in vivo; conditions: relative to chlordiazepoxide = 1.00, larger value = less effective
Experimental: (§1) The pharmacalogical activity of the novel compounds of this invention was evaluated by standard methods such as the anticonvulsant effect against pentylene tetrazole shock and maximal and minimal electroshock, muscle relaxing ability, the fighting test, and hypnotic effect. These standard test are described in detail in the literature, for example, in L. O. Randall, C. L. Schenkel, R. F. Banziger, Curr. Ther. Res., Clin. Exp., 590 (1965), and M. I. Gluckman, Curr. Ther. Res., Clin. Exp., 7,721 (1965).
(§2) This Example illustrates the pharmacological effectiveness of the compounds of this invention. A number of the compounds of this invention were tested for their pharmacological effect on the CNS by the procedures described above. Also tested were the corresponding racemic mixtures and three commercial tranquillizers:
(§3) The results of the tests are shown in Table IV wherein the relative potencies compared with that of chlordiazepoxide which is assigned an activity of 1.00. […] It can also be seen that the pharmaceutically active compounds of this invention compare favorably with some commercially useful tranquillizers and even surpass them in some respects.

mice [2] = test: Anticonvulsant effect against maximal electroshock, mice; type: in vivo; conditions: relative to chlordiazepoxide = 1.00, larger value = less effective
Experimental: as §1, §2, §3

mice [3] = test: Anticonvulsant effect against minimal electroshock, mice; type: in vivo; conditions: relative to chlordiazepoxide = 1.00, larger value = less effective
Experimental: as §1, §2, §3

mice [4] = test: Hypnotic effect, mice; type: in vivo; conditions: relative to chlordiazepoxide = 1.00, larger value = less effective
Experimental: as §1, §2, §3

mice [5] = test: Anticonvulsant effect against pentylene tetrazole shock, mice; type: in vivo; conditions: relative to chlordiazepoxide = 1.00, larger value = less effective
Experimental: as §1, §2, §3

mice [6] = test: Muscle relaxation (muscle relaxing ability), mice; type: in vivo; conditions: relative to chlordiazepoxide = 1.00, larger value = less effective
Experimental: as §1, §2, §3

[7] = S- form; cited from earlier work
experimental animals = conditions: R- form; even at low dosages; cited from earlier work

SMILES	LD50 (LD 50 P.O., mice) [mg/kg]	Relative potency, fighting test (mice [1])	Relative potency, anticonvulsant effect, maximal electro shock (mice [2])	Relative potency, anticonvulsant effect, minimal electro shock (mice [3])	Relative potency, hypnotic effect (mice [4])	Relative potency, anticonvulsant effect, pentylene tetrazole (mice [5])	Relative potency, muscle relaxation (mice [6])	known pharmacological action [7]	known adverse effect in experimental animals (experimental animals)
C[C@@H]1N=C(c2ccccc2)c2cc(Cl)ccc2NC1=O [20 (S)]	2300	1.0	1.32	0.20	0.4	4.1	1.0		
CN1CCN=C(c2ccccc2)c2cc(Cl)ccc21 [Medazepam, 7-chloro-5-phenyl-1-methyl-1,2-dihydro-3H-1,4-benzodiazepine]	1420	1.0	1.03	0.32	0.30	6.2	1.3		
CC1N=C(c2ccccc2)c2cc(Cl)ccc2NC1=O (racemic) [20 (Rac.)]		10.4	8.20	5.00	2.30	30.40	9.60		
O=C1Nc2ccc(Cl)cc2C(c2ccccc2)=N[C@H]1Cc1c[nH]c2ccccc12 [23 (S)]	2300	7.10	4.10	1.70	0.80	3.20	6.20		
C[C@@H]1N=C(c2ccccc2)c2cc(Cl)ccc2N(C)C1=O [26 (S)]	2600	1.00	0.90	0.10	0.80	5.80	0.70		
CN1C(=O)C(OCC(O)CO)N=C(c2ccccc2)c2cc(Cl)ccc21 [31 (S)]	6000	1.0	0.38		0.42	10.30	0.80		
O=C1Nc2ccc(Cl)cc2C(c2ccccc2)=N[C@H]1Cc1ccc(O)cc1 [22 (S)]	1850	5.70	6.30	1.42	4.20	7.3	4.30		
CC(C)[C@@H]1N=C(c2ccccc2)c2cc(Cl)ccc2NC1=O [25 (S)]	1850	1.40	1.75	0.30	0.80	1.80	1.15		
CC(O)C1N=C(c2ccccc2)c2cc(Cl)ccc2NC1=O (racemic) [24 (Rac.)]		16.30	12.60	3.27	3.20	105.60	5.42		
O=C1Nc2ccc(Cl)cc2C(c2ccccc2)=N[C@H]1Cc1ccccc1 [21 (S)]	1600	4.50	4.82	2.30	2.10	5.30	4.10		
CC(C)C1N=C(c2ccccc2)c2cc(Cl)ccc2NC1=O (racemic) [25 (Rac.)]		9.30	20.30	4.70	4.20	20.4	8.60		
CN1C(=O)C(OCC(O)CO)N=C(c2ccccc2)c2cc(Cl)ccc21 (racemic) [31 (Rac.)]		8.74	4.72	2.30	2.30	105.4	9.60		
O=C1Nc2ccc(Cl)cc2C(c2ccccc2)=NC1Cc1ccc(O)cc1 (racemic) [22 (Rac.)]		56.30	65.40	16.70	18.60	75.6	46.20		
O=C1Nc2ccc(Cl)cc2C(c2ccccc2)=NC1Cc1ccccc1 (racemic) [21 (Rac.)]		45.8	10.30	20.60	10.70	40.50	40.70		
O=C1Nc2ccc(Cl)cc2C(c2ccccc2)=NC1O (stereo not drawn) [Oxazepam, 7-chloro-1,3-dihydro-3-hydroxy-5-phenyl-2H-1,4-benzodiazepine-2-one]	3700						0.62		
O=C1Nc2ccc(Cl)cc2C(c2ccccc2)=NC1Cc1c[nH]c2ccccc12 (racemic) [23 (Rac.)]		80.30	38.70	14.60	8.30	30.60	60.50		
CC[C@@H](CO)NCCN[C@@H](CC)CO [S- form of Ethambutole, Ethambutole]								anti-tuberculous agent	
CC[C@H](CO)NCCN[C@H](CC)CO [R- form, Ethambutole]									causes blindness in experimental animals, even at low dosages
C[C@@H](O)[C@@H]1N=C(c2ccccc2)c2cc(Cl)ccc2NC1=O [24 (S)]	6000	1.70	1.30	0.45	0.51	10.30	0.62		
CC1N=C(c2ccccc2)c2cc(Cl)ccc2N(C)C1=O (racemic) [26 (Rac.)]		8.94	10.20	2.10	2.70	47.30	6.54		
